Article PMC5365645, “Preclinical Pharmacokinetics and Pharmacodynamic Target of SCY-078, a First-in-Class Orally Active Antifungal Glucan Synthesis Inhibitor, in Murine Models of Disseminated Candidiasis” (Antimicrobial Agents and Chemotherapy, 2017)
Converted amounts (≈) assume the structure as drawn. “And” between values parts separate entries of the source, which are not always exact repeats. Identical values can stand only once.

Tests used:
[1] = design: method as in ref 5 = [5]; 5. Trucksis M , Garrett G , Bautmans A , Heirman I , Laethem M , Comisar WA , Maganti L , Bi S , Iwamoto M , O'Mara E , Wagner JA , Depre M , de Hoon J 2011 A phase I multiple-rising dose study evalua; conditions: single- and multiple-dose phase 1 and 2 clinical studies ref 5; cited from earlier work
[2] = Immediate treatment murine model of disseminated candidiasis; conditions: DBA/2N, mouse, plasma, po
C. albicans MY1055 = assay: as above
in vivo [3] = conditions: female, CD-1, mouse; for AUC(0-inf) / AUC(0-t) / half-life: kidney; for AUC(0-inf) / AUC(0-t) / half-life / Kp: po; for Kp at 12 h / Kp: kidney/plasma; for Kp at 12 h: oral
Experimental: Female CD-1 mice (n = 5/sex/time point/group) weighing approximately 25 g were administered SCY-078 by oral gavage either once daily or as multiple twice-per-day (Q12h) treatments, with individual doses ranging between 3 and 100 mg/kg (6 to 150 mg/kg/day). Mice also received a single 1-mg/ml i.v. dose of SCY-078. Plasma specimens were collected prior to dosing and at 0.25, 0.5, 1, 2, 4, 6, 9, 12, 18, 24, 36, 48, and 60 h after the single i.v. dose and at the same time points from 1 h postdose onward following oral dose 13 on day 7 of treatment. On the first day of oral treatment, plasma specimens were collected immediately before each of the two doses and 1, 2, 4, 6, 9, and 12 h postdosing. […] Kidney tissues were collected at 2, 4, 12, 24, 36, 48, and 60 h after oral dose 13 on treatment day 7, blotted dry, and stored at approximately −80°C until analysis.
On the day of analysis, either treatment-naive (drug-free) kidney tissue or freshly thawed tissue samples from PK studies were weighed and homogenized in 3 volumes of phosphate-buffered saline. The density of kidney tissue used for the determination of volume was assumed to be 1.0 g/ml.
Whole-kidney tissue samples were homogenized in parallel by means of a Precellys 24 bead mill homogenizer (Bertin Technologies, Montigny le Bretonneux, France) using 2-ml Precellys tubes containing 1.4-mm-diameter ceramic beads (CK14) and a single 15-s cycle of 5,500 rpm. Parallel bead homogenization increased throughput and avoided potential cross-contamination of samples since each sample was wholly contained and homogenized within its own sealed vial with no direct contact between the homogenizing instrument or other samples.
Mouse plasma (50 μl) or kidney tissue homogenate (50 μl) was treated with 5 volumes of acetonitrile containing 50 ng of deuterium (d9)-labeled SCY-078 internal standard/ml to precipitate proteins. Treated samples were mixed on a 96-well plate shaker for ∼30 min and then centrifuged at approximately 4,000 × g and 15°C for 15 min. Supernatants were transferred to fresh 96-well plates for analysis by LC-MS/MS.

[4] = test system: C. glabrata isolate CG 5592; design: method as in PMID 25512406; conditions: cited from earlier work
[5] = In vitro metabolic stability in hepatic microsomes, rodent summary; assay type: in vitro ADME, mouse and rat
Experimental: The metabolic stability of SCY-078 was assessed after incubation with mouse, rat, dog, and human liver microsomes (Table 2) ([10]). […] The half-lives in rodent, dog, and human liver microsomes were ≥125, ≥29, and ≥42 min, respectively.
The metabolic stability of SCY-078 was evaluated with male and female mouse, male rat, male and female dog, and mixed-gender human liver microsomes (XenoTech, Lenexa, KS). SCY-078 (1 μM) was incubated with pooled liver microsomes (0.5 mg protein/ml) for 0, 5, 10, 20, and 30 min at 37°C in the presence of NADPH. Aliquots were taken at each sampling time point and extracted with 5 volumes of ice-cold acetonitrile containing the internal standard (d9-SCY-078, 125 ng/ml). Supernatants from the incubation mixtures were analyzed for the parent compound by LC-MS/MS according to the conditions described below. The metabolic competency of microsomal preparations was established using the control compounds 7-ethoxycoumarin, propranolol, and verapamil. The in vitro intrinsic clearance (CLint), the CLint scaled to the in vivo intrinsic clearance (CL′int), and the half-life were determined for SCY-078 incubated with microsomes from each species.

in vivo [6] = assay: in vivo; design: species or system Wistar Han rats; conditions: Wistar Han, rat; for half-life: t1/2
Experimental: The pharmacokinetics and bioavailability of SCY-078 were evaluated in uninfected mouse, rat, and dog after p.o. and i.v. administration. The in vivo phases of the PK studies were performed at either […] (Waltham, MA) or MPI Research (Mattawan, MI) after an Institutional Animal Care and Use Committee (IACUC) review. […] and MPI Research are Association for Assessment and Accreditation of Laboratory Animal Care International (AAALAC)-approved facilities. […] The peak concentration (Cmax), the time to maximum concentration (Tmax), the half-life, and the AUC were determined from composite mean plasma concentration-time data for rodents and individual plasma concentration-time data for dogs. All doses and plasma concentrations of SCY-078 are presented as free base. Male and female Wistar Han rats (n = 3/sex/group/time point) weighing 0.329 to 0.398 kg (males) or 0.187 to 0.244 kg (females) received a single 5-mg/kg dose of SCY-078 as an i.v. injection in the lateral tail administered over 5 min or an oral dose of 20 mg/kg as described above. Blood specimens were collected from four animals/time point/group using a sparse sampling strategy via the sublingual vein at time intervals to 72 h postdosing and processed as described above.

[7] = Study A, 6.25 mg/kg p.o. BID, day 7
[8] = Study A, 12.5 mg/kg p.o. BID, day 7
[9] = Study A, Efficacious: projected assuming linearity
[10] = Study B, 6.25 mg/kg p.o. BID, day 7
[11] = Study B, 12.5 mg/kg p.o. BID, day 7
[12] = Study B, Efficacious: projected assuming linearity
[13] = Study C, 6.25 mg/kg p.o. BID, day 7

For `CC(C)[C@@H](C)[C@@]1(C)CC[C@]2(C)[C@H]3CC[C@@H]4[C@@]5(COC[C@@]4(C)[C@@H](OC[C@](C)(N)C(C)(C)C)[C@H](n4ncnc4-c4ccncc4)C5)C3=CC[C@@]2(C)[C@@H]1C(=O)O` [SCY-078, (1S,4aR,6aS,7R,8R,10aR,10bR,12aR,14R,15R)-15-[[(2R)-2-amino-2,3,3-trimethylbutyl]oxy]-8-[(1R)-1,2-dimethylpropyl]-14-[5-(4-pyridinyl)-1H-1,2,4-triazol-1-yl]-1,6,6a,7,8,9,10,10a,10b,11,12,12a-dodecahydro-1,6a,8,10a-tetramethyl-4H-1,4a-propano-2H-phenanthro[1,2-c]pyran-7-carboxylic acid], which Tolerability [1] is on record?
The Tolerability was “well tolerated”.

And the AUC(0-t) ([2]; 6.25 mg/kg, Plasma AUC0–24, Study A, 6.25 mg/kg p.o. BID, after dose 13 day 7)?
Its AUC(0-t) is 6190 ng·h/mL and 8.48 µM·h.

What about the AUC(0-t) ([2]; 6.25 mg/kg, Plasma AUC0–24, Study B, 6.25 mg/kg p.o. BID, after dose 13 day 7) of the same compound?
The AUC(0-t) was 3270 ng·h/mL and 4.48 µM·h.

And the AUC(0-t) ([2]; 6.25 mg/kg, Plasma AUC0–24, Study C, 6.25 mg/kg p.o. BID, after dose 13 day 7)?
Its AUC(0-t) is 11000 ng·h/mL and 15.1 µM·h.

And the AUC(0-t) ([2]; 12.5 mg/kg, Plasma AUC0–24, Study A, 12.5 mg/kg p.o. BID, after dose 13 day 7)?
Its AUC(0-t) is 19700 ng·h/mL and 27 µM·h.

And the AUC(0-t) ([2]; 12.5 mg/kg, Plasma AUC0–24, Study B, 12.5 mg/kg p.o. BID, after dose 13 day 7)?
Its AUC(0-t) is 16200 ng·h/mL and 22.2 µM·h.

What about the AUC(0-t) ([2]; Plasma AUC0–24, Study A, Efficacious: projected efficacious exposure assuming linearity) of the same compound?
Its AUC(0-t) is 12900 ng·h/mL and 17.7 µM·h.

And the AUC(0-t) ([2]; Plasma AUC0–24, Study B, Efficacious: projected efficacious exposure assuming linearity)?
The AUC(0-t) was 9710 ng·h/mL and 13.3 µM·h.

What about the Kidney tissue burden (C. albicans MY1055; [7]) of the same compound?
Its Kidney tissue burden is 2.78 log10 CFU/g of tissue.

And the “Reduction from sham treatment” value (C. albicans MY1055; [7])?
The value was 3.69 log10 CFU/g of tissue.

And the “% animals sterilized” value (C. albicans MY1055; Study A, 6.25 mg/kg p.o. BID, day 7, five animals per group)?
The value was 40%.

And the Kidney tissue burden (C. albicans MY1055; [8])?
Its Kidney tissue burden is 2.23 log10 CFU/g of tissue.

And the “Reduction from sham treatment” value (C. albicans MY1055; [8])?
The value was 4.24 log10 CFU/g of tissue.

And the “% animals sterilized” value (C. albicans MY1055; Study A, 12.5 mg/kg p.o. BID, day 7, five animals per group)?
Its value is 80%.

What about the “% animals sterilized” value (C. albicans MY1055; [9]) of the same compound?
Its value is 60%.

What about the Kidney tissue burden (C. albicans MY1055; [9]) of the same compound?
The Kidney tissue burden was 2.51 log10 CFU/g of tissue.

What about the “Reduction from sham treatment” value (C. albicans MY1055; [9]) of the same compound?
Its value is 4 log10 CFU/g of tissue.

And the Kidney tissue burden (C. albicans MY1055; [10])?
The Kidney tissue burden was 3.52 log10 CFU/g of tissue.

And the “Reduction from sham treatment” value (C. albicans MY1055; [10])?
Its value is 3.35 log10 CFU/g of tissue.

What about the “% animals sterilized” value (C. albicans MY1055; Study B, 6.25 mg/kg p.o. BID, day 7, five animals per group) of the same compound?
The value was 0%.

What about the Kidney tissue burden (C. albicans MY1055; [11]) of the same compound?
Its Kidney tissue burden is 2.2 log10 CFU/g of tissue.

And the “Reduction from sham treatment” value (C. albicans MY1055; [11])?
The value was 4.67 log10 CFU/g of tissue.

What about the “% animals sterilized” value (C. albicans MY1055; Study B, 12.5 mg/kg p.o. BID, day 7, five animals per group) of the same compound?
Its value is 100%.

And the “% animals sterilized” value (C. albicans MY1055; [12])?
The value was 50%.

And the Kidney tissue burden (C. albicans MY1055; [12])?
Its Kidney tissue burden is 2.86 log10 CFU/g of tissue.

And the “Reduction from sham treatment” value (C. albicans MY1055; [12])?
Its value is 4.01 log10 CFU/g of tissue.

And the Kidney tissue burden (C. albicans MY1055; [13])?
The Kidney tissue burden was 2.61 log10 CFU/g of tissue.

And the “Reduction from sham treatment” value (C. albicans MY1055; [13])?
The value was 4.35 log10 CFU/g of tissue.

And the “% animals sterilized” value (C. albicans MY1055; Study C, 6.25 mg/kg p.o. BID, day 7, five animals per group)?
The value was 60%.

And the “Free-drug (f) AUC0–24” value (C. albicans MY1055; efficacy target, fraction bound 99.8% in mouse plasma)?
The value was 0.0224 ± 0.0032 µg·h/mL.

And the “Mean therapeutic exposure (plasma AUC0–24) across all models” value (C. albicans MY1055; mean of immediate-treatment, delayed-single-dose and delayed-fractionated-dose models)?
Its value is 14.3 µM·h.

What about the AUC(0-inf) (in vivo [3]; 6.25 mg/kg) of the same compound?
The AUC(0-inf) was 198000 ng·h/mL.

What about the AUC(0-t) (in vivo [3]; 6.25 mg/kg) of the same compound?
The AUC(0-t) was 118000 ng·h/mL.

And the half-life (in vivo [3]; 6.25 mg/kg)?
Its half-life is 9.2 h.

And the AUC(0-inf) (in vivo [3]; 12 mg/kg)?
Its AUC(0-inf) is 700000 ng·h/mL.

What about the AUC(0-t) (in vivo [3]; 12 mg/kg) of the same compound?
Its AUC(0-t) is 346000 ng·h/mL.

And the half-life (in vivo [3]; 12 mg/kg)?
Its half-life is 8.9 h.

And the Kp at 12 h (in vivo [3]; 6.25 mg/kg)?
Its Kp at 12 h is 19.

What about the Kp at 12 h (in vivo [3]; 12 mg/kg) of the same compound?
The Kp at 12 h was 25.7.

What about the Kp (in vivo [3]; 6.25 mg/kg) of the same compound?
Its Kp is 21.5.

What about the Kp (in vivo [3]; 12 mg/kg) of the same compound?
Its Kp is 23.1.

What about the MIC [4] of the same compound?
Its MIC is 0.25 µg/mL (≈ 0.342 µM).

And the half-life at 1 μM ([5]; both (mouse), male (rat), pooled liver microsomes, rodent liver microsomes)?
The half-life at 1 μM was at least 2.08 h.

And the CLint scaled at 1 μM ([5]; both (mouse), male (rat), pooled liver microsomes, rodent liver microsomes, read-out: CL′int (CLint scaled to in vivo intrinsic clearance))?
The CLint scaled at 1 μM was under 0.04 mL/min/kg.

And the microsomal CLint at 1 μM ([5]; both (mouse), male (rat), pooled liver microsomes, rodents (mouse and rat) liver microsomes)?
Its microsomal CLint at 1 μM is at most 11 µL/min/mg.

What about the remaining at 0.5 h, 1 µM ([5]; both sexes, mouse, rat, liver microsomes, rodent microsomes, read-out: % remaining after 30 min) of the same compound?
The remaining at 0.5 h, 1 µM was about 85%.

And the AUC(0-inf) (in vivo [6]; both sexes, iv, 5 mg/kg)?
Its AUC(0-inf) is 11700 ng·h/mL.

And the AUC(0-t) (in vivo [6]; both sexes, iv, 5 mg/kg)?
Its AUC(0-t) is 10300 ng·h/mL.

And the Vd (in vivo [6]; both sexes, iv, 5 mg/kg)?
Its Vd is 4.7 L/kg.

What about the clearance (in vivo [6]; both sexes, iv, 5 mg/kg) of the same compound?
Its clearance is 7.33 mL/min/kg.

What about the half-life (in vivo [6]; both sexes, iv, 5 mg/kg) of the same compound?
The half-life was about 8.7 h.

What about the AUC(0-inf) (in vivo [6]; both sexes, po, 20 mg/kg) of the same compound?
The AUC(0-inf) was 20800 ng·h/mL.

What about the AUC(0-t) (in vivo [6]; both sexes, po, 20 mg/kg) of the same compound?
Its AUC(0-t) is 16400 ng·h/mL.

And the Cmax (in vivo [6]; both sexes, po, 20 mg/kg)?
The Cmax was 1010 ng/mL.

And the Tmax (in vivo [6]; both sexes, po, 20 mg/kg)?
The Tmax was 8 h.

What about the bioavailability (in vivo [6]; both sexes, po, 20 mg/kg, Bioavailability) of the same compound?
Its bioavailability is about 45%.

What about the half-life (in vivo [6]; both sexes, po, 20 mg/kg) of the same compound?
The half-life was about 9.1 h.

What about the “Dose normalized AUC0–∞ to a 1-mg/kg dose” value (in vivo [6]; both, iv) of the same compound?
Its value is about 2.4 µg·h/mL.

What about the t1/2 (in vivo [6]; both, iv, 5 mg/kg) of the same compound?
Its t1/2 is 8.7 h.
